Where a name gives a salt, the structure may show the parent alone. Read-outs that look alike come from different tables or passages of the source.

Assay [1] concerns Adult Bovine Aortic Endothelial (ABAE) cell line. The experiment in a line: Antiproliferative activity in Adult Bovine Aortic Endothelial (ABAE) cell line, PROTOCOL 3. As to conditions: for IC50: Bos taurus, 96 h, ABAE cells. It is filed as cell-based. Here is the method: The antiproliferative activity of the compounds of Formula I in an Adult Bovine Aortic Endothelial (ABAE) cell line and in Human Tumor cells lines is evaluated in three similar assays that measure growth inhibition. The assays are identified as follows:
(§1) PROTOCOLS 1, 2, and 3 are described in greater detail hereinbelow. In general, according to PROTOCOLS 1 and 2, the target ABAE and/or Human Tumor cells are exposed to the compound of Formula I for 48 hours. PROTOCOL 3 exposes ABAE cells to the compounds for 4 days. A detailed description of the protocol is as follows:
Antiproliferative Activity in Adult Bovine Aortic Endothelial (ABAE) Cell Line
ABAE cells are grown in DMEM media (Mediatech Washington, D.C.) supplemented with 10% calf serum (Hyclone). ABAE cells are plated in 24-well dishes at 8,000 cells/well, followed by the addition of increasing concentrations of 7-[substituted amino]-9-[(substituted glycyl)amido]-6-demethyl-6-deoxytetra-cyclines. After four days, the cells are detached and counted. […] The growth inhibition (I) as % of control is calculated as follows: [formula] wherein: Nc is the number of cells in untreated wells;
Nt is the number of cells in treated wells;
No is the number of plated cells.
IC50 of growth inhibition is determined from the sets of I values plotted by Kaleidograph software (Abelbeck Software).
Table 2 presents the results depicting the antiproliferative activity of the compounds of Formula I against an adult bovine aortic endothelial cell line (ABAE), as evaluated by PROTOCOL 1 and PROTOCOL 3. The results are presented in terms of IC50 and are as follows.

A further assay deals with CACO2. Kind of assay: Antiproliferative activity in human tumor cell lines (CACO2). The following applies: Caco-2, CACO2 colon tumor cell line. It is filed as cell-based. On the procedure:
as §1
The antiproliferative activity of the compounds of Formula I of the present invention is evaluated in a panel comprised of human tumor cell lines and an adult bovine aortic endothelial cell line (ABAE). The human tumor cell lines are from
All cell lines are maintained in log phase in RPMI 1640 media, supplemented with 5% fetal calf serum, penicillin/streptomycin and 2 mM L-glutamine. Cultures are renewed after 20 passages with cells from a fresh stock of batch-frozen early passage cells. Cell lines are routinely checked for mycoplasma contamination (Genprobe). In a laminar flow hood, cells (1-5×10^4) are plated into 96-well microtiter plates in a volume of 0.1 ml/well with a bulk microtiter dispenser (Denley). […] At this concentration, dimethylsulfoxide has no effect on cell growth. Compounds are added using a Tomtec dispenser which simultaneously dispenses from one 96-well plate, containing the drug dilutions, to the plates containing the cells. After two days of continuous drug exposure, 50% cold trichloroacetic acid (TCA) is added to 10% final concentration to fix the cells, and after 60 minutes at 4° C., the TCA is aspirated and the plates are washed 5 times with deionized water using a microtiter plate washer. The number of cells on the plate are quantitated using a protein dye-binding assay (Monks et al., 1991). A 0.4% solution of the dye, sulforhodamine B, in glacial acetic acid is added to the plates, and the plates are washed 5 times with 1% glacial acetic acid using the automatic plate washed. The bound stain is solubilized with 0.1 ml of 10 mM Tris base. The optical densities are read from an automatic spectrophotometric plate reader (Dynatech) directly to a main frame computer (VAX 8600).
Positive controls, that include standard chemotherapeutic drugs (i.e., adriamycin, cisplatin, etc.), are included in every experiment.
Background optical density measurements (complete media-cells, and complete media+drug-cells) are automatically subtracted from the appropriate control and test wells. Mean values and standard errors are determined from duplicate wells. A measure is also made of the optical density at time when the drugs are added. The number of cells after treatment (P), as % of control, is calculated for every concentration of drug, as follows: [formula] wherein: T is optical density measurement for treated cells after 48 hours;
C is optical density measurement for untreated cells after 48 hours;
Co is optical density measurement for cells at the time of drug addition.
IC50 of growth inhibition is calculated from the sets of P values using the RS-1 data package (BBN Software).
Antiproliferative Activity in Human Tumor Cell Lines
The antiproliferative activity of the compounds of Formula I is evaluated in the panel comprised of human tumor cell lines as listed in PROTOCOL 1. This assay is a slight modification of PROTOCOL 1. The modifications include:
1) each concentration for each compound is tested in a single well;
2) compounds are tested at 20, 4, 0.8, 0.16 microgram/ml and additionally in some experiments at 100 and 0.32 microgram/ml;
3) samples are pipetted into a 96-well plate for each of the cell lines by a Beckman Biomek 1000 SL robot;
4) after fixing with TCA each well is washed with 0.35 ml distilled water twice, not five times;
5) after staining with sulforhodamine B each well is washed 3 times, not five times;
6) the growth inhibition (I) as % of control, is calculated using the RS-1 data package (BBN Software), for every concentration of drug, as follows: [formula] wherein: T is optical density measurement for treated cells after 48 hours; […]

On to `CN(C)CC(=O)Nc1cc(N(C)C)c2c(c1O)C(=O)C1=C(O)[C@]3(O)C(=O)C(C(N)=O)=C(O)[C@@H](N(C)C)C3CC1C2` (stereo partly drawn) [Example 2, [4S-(4a,12aa-1-4,7-Bis(dimethylamino)-9-[[(dimethylamino)acetyl]amino]]-1,4,,4a,5,5a,6,11,12a-octahvdro-3,10,12,12a-tetrahydroxy-1,11-dioxo-2-napththacenecarboxamidedihydrochloride], for which, in assay [1] (4 day assay (Protocol 3)), the “activity upon incubation with cells” value is reported as “retains its activity”. For the same compound, the IC50 is around 3 µg/mL in assay [1] (4 day assay (Protocol 3), FIG. 1 text, read-out: inhibits 50% of cell growth at); 3 µg/mL in assay [1] (4 days exposure, read-out: IC50 PROTOCOL 3); 5.1 µg/mL with CACO2.
In turn, `CCCCCCNCC(=O)Nc1cc(N(C)C)c2c(c1O)C(=O)C1=C(O)[C@]3(O)C(=O)C(C(N)=O)=C(O)[C@@H](N(C)C)C3CC1C2` (stereo partly drawn) [Example 4, [4S-(4α,12aα)]-4,7-Bis(dimethylamino)-9-[(hexylamino)acetyl]amino]-1,4,4a,5,5a,6,11,12a-octahydro-3,10,12,12a-tetrahydroxy-1,11-dioxo-2-naphthacenecarboxamide dihydrochloride] yielded an IC50 with CACO2 of 1.9 µg/mL.
Still for that read-out and setting: the figure for `CCCCCCCNCC(=O)Nc1cc(N(C)C)c2c(c1O)C(=O)C1=C(O)[C@]3(O)C(=O)C(C(N)=O)=C(O)[C@@H](N(C)C)C3CC1C2` (stereo partly drawn) [Example 5, [4S-(4α,12aα)]-4,7-Bis(dimethylamino)-9-[[(heptylamino)acetyl]amino]-1,4,4a,5,5a,6,11,12a-octahydro-3,10,12,12a-tetrahydroxy-1,11-dioxo-2-naphthacenecarboxamide dihydrochloride] is 3.7 µg/mL.

(Values after US5843925A, “Methods for inhibiting angiogenesis, proliferation of endothelial or tumor cells and tumor growth” (American Cyanamid Company, priority 1994, dated 1998).)
